Among the data in patent publication US12583858B2 (Genentech, Inc., priority 2015, dated 2026) are EC50 values, retold here.

The structures appear in SMILES notation.

T1 sequence (P48775 whole entry): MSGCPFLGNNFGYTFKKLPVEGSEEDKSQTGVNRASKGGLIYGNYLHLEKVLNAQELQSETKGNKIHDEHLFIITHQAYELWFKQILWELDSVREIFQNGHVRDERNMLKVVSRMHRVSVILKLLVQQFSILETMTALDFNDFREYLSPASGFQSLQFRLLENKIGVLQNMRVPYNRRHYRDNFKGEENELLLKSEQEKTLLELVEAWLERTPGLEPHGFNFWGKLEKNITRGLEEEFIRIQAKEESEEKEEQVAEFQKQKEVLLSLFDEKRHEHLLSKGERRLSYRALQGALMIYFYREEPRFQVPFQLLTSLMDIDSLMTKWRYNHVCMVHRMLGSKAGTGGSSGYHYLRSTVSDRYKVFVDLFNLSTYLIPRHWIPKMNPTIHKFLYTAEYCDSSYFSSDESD

This assay addresses T1, TDO2 (Homo sapiens, UniProt P48775).
T1 construct: decreased levels of NFK in SW48 cells (high TDO expressing cells)
Nature of the assay: TDO2 cell assay (NFK GreenScreen, SW48 cells). In kind it is cell-based. As to conditions: SW48 cells (high TDO expressing), 200 uM tryptophan, 24 hours; Table 3; read-out: TDO2 Cell Fluor EC50.
As for `Cc1nc2c(o1)CCC(C1c3ccccc3-c3cncn31)C2O` (single isomer, unassigned) [Example 168a], the EC50 – broadly, the concentration at which the effect is half-maximal – worked out at 140 nM. Then `Nc1ncc2c(n1)CCC(C1c3ccccc3-c3cncn31)C2O` (single isomer, unassigned) [Example 111c], with 7800 nM; and `CS(=O)(=O)N1CCC(O)C(C2c3ccc(F)cc3-c3cncn32)C1` (single isomer, unassigned) [Example 118b], with more than 25000 nM; and `OC1CC(CF)(CF)C1C1c2ccccc2-c2cncn21` (single isomer, unassigned) [Example 150f], with 11000 nM.

With `NC(=O)c1ccc2c(c1)C(O)C(C1c3ccccc3-c3cncn31)CC2` (single isomer, unassigned) [Example 122d], the EC50 amounted to 370 nM. Regarding `CC(C)(C)OC(=O)N1CCC(C2c3ccccc3-c3cncn32)C(O)C1` (single isomer, unassigned) [Example 10b, tert-butyl 3-hydroxy-4-(5H-imidazo[5,1-a]isoindol-5-yl)piperidine-1-carboxylate], the concentration giving a half-maximal response (EC50) is more than 25000 nM. As for `CC(C)(C(N)=O)[C@@H](O)[C@H]1c2ccccc2-c2cncn21` [Example 155a, (R)-3-hydroxy-3-((R)-5H-imidazo[5,1-a]isoindol-5-yl)-2,2-dimethylpropanamide], the EC50 amounted to 330 nM. For the molecule `O=c1cccc2n1CCC(C1c3ccccc3-c3cncn31)C2O` (single isomer, unassigned) [Example 29f, 1-hydroxy-2-(5H-imidazo[5,1-a]isoindol-5-yl)-3,4-dihydro-1H-quinolizin-6(2H)-one], the EC50 was more than 25000 nM. Regarding `CC(C)(C)OC(=O)N1CCCC(O)(C2c3ccccc3-c3cncn32)C1` (single isomer, unassigned) [Example 127c], the half-maximal effective concentration (EC50) amounted to 760 nM.

With `OC1C(C2c3ccc(F)cc3-c3cncn32)CC12CCOCC2` (single isomer, unassigned) [Example 109g], the EC50 was 150 nM. As for `CC1(C)OCC(C2c3ccccc3-c3cncn32)C1O` (single isomer, unassigned) [Example 85h], the EC50 was determined as 660 nM. For the molecule `OC1C(C2c3ccccc3-c3cncn32)CC12CCOCC2` (single isomer, unassigned) [Example 57b], the EC50 was determined as 5000 nM. As to `CS(=O)(=O)c1ccc2c(c1)CCC(C1c3ccccc3-c3cncn31)C2O` (single isomer, unassigned) [Example 36h], the EC50 was found to be 980 nM. With `OC1CCCOCC1C1c2ccccc2-c2cncn21` (single isomer, unassigned) [Example 86a], the EC50 was 14000 nM.

Regarding `O=c1cccc2n1CCC(C1c3ccccc3-c3cncn31)C2O` (single isomer, unassigned) [Example 29d, 1-hydroxy-2-(5H-imidazo[5,1-a]isoindol-5-yl)-3,4-dihydro-1H-quinolizin-6(2H)-one], the EC50 turned out to be 5700 nM. `OC1c2cnccc2CC1C1c2ccccc2-c2cncn21` (single isomer, unassigned) [Example 71f]: the EC50 is more than 25000 nM. As for `OC1c2cccnc2CCC1C1c2ccccc2-c2cncn21` (single isomer, unassigned) [Example 31d], the EC50 was more than 25000 nM. On to `O[C@H]1[C@H]([C@H]2c3ccccc3-c3cncn32)CCCC1(F)F` (single isomer, unassigned) [Example 106b], for which the EC50 is 170 nM.

For the molecule `O[C@@H]1CC[C@H]1[C@@H]1c2ccccc2-c2cncn21` (single isomer, unassigned) [Example 01f], the EC50 is more than 25000 nM. For the molecule `CN(C)C(=O)c1ccc2c(c1)CCC(C1c3ccccc3-c3cncn31)C2O` (single isomer, unassigned) [Example 98e], the concentration for a half-maximal effect (EC50) worked out at 22000 nM. Turning to `OCC(O)C1c2ccccc2-c2cncn21` (single isomer, unassigned) [Example 49c, 1-(5H-imidazo[5,1-a]isoindol-5-yl)ethane-1,2-diol], the EC50 was more than 25000 nM. With `OC1C(C2c3ccc(F)cc3-c3cncn32)CC12CCOCC2` (single isomer, unassigned) [Example 109h] the figure was more than 25000 nM.

On to `OC1C(C2c3ccccc3-c3cncn32)CCC12CCOCC2` (single isomer, unassigned) [Example 68b], for which the EC50 came out at 7400 nM.

As to `CC1(O)CCOCC1C1c2ccccc2-c2cncn21` (single isomer, unassigned) [Example 61a], the EC50 came to 570 nM. For the molecule `NC(=O)c1ccc2c(c1)CC[C@H](C1c3ccccc3-c3cncn31)[C@H]2O` (stereo in doubt) [Example 60c, (5R,6R)-5-hydroxy-6-((S)-5H-imidazo[5,1-a]isoindol-5-yl)-5,6,7,8-tetrahydronaphthalene-2-carboxamide], the EC50 came to 2400 nM. Turning to `Nc1cc2n(n1)CCC(C1c3ccccc3-c3cncn31)C2O` (single isomer, unassigned) [Example 161h], the EC50 was determined as 18000 nM. Take `OC1c2cnccc2CC1C1c2ccccc2-c2cncn21` (single isomer, unassigned) [Example 71aa]: the concentration giving a half-maximal response (EC50) is more than 25000 nM.

Take `O[C@@H]1c2c(F)cnn2CC[C@@H]1[C@@H]1c2ccccc2-c2cncn21` [Example 151a, (4S,5R)-3-fluoro-5-((R)-5H-imidazo[5,1-a]isoindol-5-yl)-4,5,6,7-tetrahydropyrazolo[1,5-a]pyridin-4-ol]: the EC50 was 520 nM. For the molecule `CS(=O)(=O)c1ccc2c(c1)CCC(C1c3ccccc3-c3cncn31)C2O` (single isomer, unassigned) [Example 36d], the EC50 was 3800 nM. On to `NS(=O)(=O)c1ccc2c(c1)CCC(C1c3ccccc3-c3cncn31)C2O` (single isomer, unassigned) [Example 100e], for which the EC50 stood at 1300 nM. As for `OC1c2cncn2CC[C@H]1[C@H]1c2ccccc2-c2cncn21` (stereo in doubt) [Example 07c, (7S,8R)-7-((S)-5H-imidazo[5,1-a]isoindol-5-yl)-5,6,7,8-tetrahydroimidazo[1,5-a]pyridin-8-ol], the EC50 came to 430 nM.

`OC1COCCC1C1c2c(Cl)cccc2-c2cncn21` (single isomer, unassigned) [Example 69-1b]: the concentration for a half-maximal effect (EC50) was more than 25000 nM. Regarding `CC1(C)CCCC(C2c3ccccc3-c3cncn32)C1O` (single isomer, unassigned) [Example 24e], the EC50 worked out at 130 nM.

For the molecule `O[C@@H]1c2nccnc2CC[C@H]1[C@H]1c2ccccc2-c2cncn21` (single isomer, unassigned) [Example 123b], the EC50 worked out at 230 nM. In the case of `CC1(O)CCOCC1C1c2ccccc2-c2cncn21` (single isomer, unassigned) [Example 61d], the EC50 came to 21000 nM. As for `OC1CCOCC1C1c2cc(F)ccc2-c2cncn21` (single isomer, unassigned) [Example 75c], the EC50 is 19000 nM. Take `O=c1cccc2n1CCC(C1c3ccccc3-c3cncn31)C2O` (single isomer, unassigned) [Example 29e, 1-hydroxy-2-(5H-imidazo[5,1-a]isoindol-5-yl)-3,4-dihydro-1H-quinolizin-6(2H)-one]: the EC50 was determined as 440 nM. Then `Cc1ncc2c(n1)CCC(C1c3ccccc3-c3cncn31)C2O` (single isomer, unassigned) [Example 124b], with 290 nM; and `NS(=O)(=O)N1CCC2(CC1)CC(C1c3ccccc3-c3cncn31)C2O` (single isomer, unassigned) [Example 181g], with 930 nM. Turning to `OC1c2ccccc2CC1C1c2ccccc2-c2cncn21` (single isomer, unassigned) [Example 19d], the EC50 was 200 nM. Turning to `NC(=O)c1ccc2c(c1)CCC(C1c3ccccc3-c3cncn31)C2O` (single isomer, unassigned) [Example 60a], the EC50 was found to be 480 nM. With `Nc1ccc2c(n1)CCC(C1c3ccccc3-c3cncn31)C2O` (single isomer, unassigned) [Example 121c], the concentration for a half-maximal effect (EC50) was determined as 220 nM. On to `CC1(C)C[C@@H](O)[C@H]1[C@@H]1c2ccccc2-c2cncn21` [Example 22e, (1R,2R)-2-((R)-5H-imidazo[5,1-a]isoindol-5-yl)-3,3-dimethylcyclobutan-1-ol], for which the EC50 came to 3500 nM. With `CC1(C)COCC(C2c3ccccc3-c3cncn32)C1O` (single isomer, unassigned) [Example 66b] the figure was 190 nM; with `CNS(=O)(=O)N1CC[C@H]([C@H]2c3ccccc3-c3cncn32)[C@@H](O)C1` [Example 74a, (3R,4R)-3-hydroxy-4-((S)-5H-imidazo[5,1-a]isoindol-5-yl)-N-methylpiperidine-1-sulfonamide], 4000 nM. With `OC1c2cncnc2CCC1C1c2ccccc2-c2cncn21` (single isomer, unassigned) [Example 94g], the 50% effective concentration (EC50) was found to be 14000 nM.

On to `NC(=O)c1nc2c(s1)CCC(C1c3ccccc3-c3cncn31)C2O` (single isomer, unassigned) [Example 149e], for which the half-maximal effective concentration (EC50) is 1400 nM. Consider `OC1c2ccccc2CC1C1c2ccccc2-c2cncn21` (single isomer, unassigned) [Example 19e], for which the EC50 was 2000 nM. As for `OC1c2ccnn2CCCC1C1c2ccccc2-c2cncn21` (single isomer, unassigned) [Example 133e], the EC50 stood at 280 nM. With `N#Cc1ccc2c(c1)CCC(C1c3ccccc3-c3cncn31)C2O` (single isomer, unassigned) [Example 62a] the figure was 10000 nM; with `CC1(O)CCC1C1c2ccccc2-c2cncn21` (single isomer, unassigned) [Example 35a], more than 25000 nM. In the case of `NC(=O)c1ccc2c(c1)CC[C@@H]([C@H]1c3ccccc3-c3cncn31)[C@H]2O` [Example 60f, (5R,6S)-5-hydroxy-6-((S)-5H-imidazo[5,1-a]isoindol-5-yl)-5,6,7,8-tetrahydronaphthalene-2-carboxamide], the EC50 worked out at 57 nM. Regarding `CC1(O)CCC1C1c2ccccc2-c2cncn21` (single isomer, unassigned) [Example 35d], the EC50 came out at 350 nM. Turning to `Cn1cc2c(n1)CCC(C1c3ccccc3-c3cncn31)C2O` (single isomer, unassigned) [Example 130e], the concentration giving a half-maximal response (EC50) turned out to be 3100 nM.
